Experimental data from ChEMBL document CHEMBL5726647, “Isoquinoline derivatives useful as inhibitors of diacylglyceride O-acyltransferase 2” (2017).
pIC50: −log10 of the molar value.

Target: T1, Diacylglycerol O-acyltransferase 2 (Homo sapiens, UniProt Q96PD7)
T1 sequence (Q96PD7 whole entry): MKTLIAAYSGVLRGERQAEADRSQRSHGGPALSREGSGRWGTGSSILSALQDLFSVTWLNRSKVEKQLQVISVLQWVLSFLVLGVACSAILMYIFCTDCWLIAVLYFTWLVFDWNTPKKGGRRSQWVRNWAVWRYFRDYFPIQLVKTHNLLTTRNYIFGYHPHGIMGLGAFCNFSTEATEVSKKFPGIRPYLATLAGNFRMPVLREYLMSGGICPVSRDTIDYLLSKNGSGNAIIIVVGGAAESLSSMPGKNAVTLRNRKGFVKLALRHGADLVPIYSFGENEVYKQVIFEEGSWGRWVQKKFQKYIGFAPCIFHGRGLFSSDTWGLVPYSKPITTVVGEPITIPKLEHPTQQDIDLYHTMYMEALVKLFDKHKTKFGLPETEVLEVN
Assay: Enzymatic Activity Assay: DGAT2 activity was determined by measuring the amount of enzymatic product triolein (1,2,3-Tri(cis-9-octadecenoyl)glycerol) using the membrane prep mentioned above.The assay was carried out in deep well 384 plates in a final volume of 40 μL at room temperature. The assay mixture contained the following: assay buffer (100 mM Tris.Cl, pH 7.0, 20 mM MgCl2, 5% ethanol), 25 μM of diolein, 10 μM of oleoyl-CoA and 10 ng/μL of DGAT2 membrane.

Row | SMILES | pIC50
1 | COc1cccc(-c2ccc(CNC(=O)c3ccccc3CN3C=C(O)ON3)c3cnccc23)c1 | 5.38
2 | COc1cccc(-c2ccc(CNC(=O)Nc3cccc(Cl)c3Cl)c3ncccc23)c1 | 5.04
3 | COc1cccc(-c2ccc(CNC(=O)Cc3ccccc3Cl)c3cnccc23)c1 | 5.70
4 | COc1cccc(-c2ccc(CNC(=O)c3ncc(Br)cn3)c3cnccc23)c1 | 5.47
5 | COc1cccc(-c2ccc(CNC(=O)Cc3cncc(Br)c3)c3cnccc23)c1 | 5.15
6 | CCOC(=O)CCc1ccc(CNC(=O)Nc2cccc(Cl)c2Cl)c2cnccc12 | 5.12
7 | COC(=O)c1cccc(-c2ccc(CNC(=O)Nc3cccc(Cl)c3Cl)c3cnccc23)c1 | 5.71
